Laboratory results as given in patent publication EP1094830B1, “USE OF COMPOSITION COMPRISING AT LEAST ONE SUBSTANCE WITHIN THE GROUP GnRH-ANALOGUES FOR TREATMENT OF OBSESSIVE-COMPULSIVE DISORDER (OCD)” (Läkartjänster I Västsverige AB, priority 1998, dated 2005).
Entries after “also recorded” stand apart in the source; their conditions may differ.

Legend:
[1] = tested on: OCD-symptoms; experiment: Case study: treatment of a patient with a severe form of OCD; type: in vivo, man; details: earlier treatment of the same patient(s) with anti-androgenic drugs, before the GnRH-analogue
Procedure: The GnRH-analogue triptorelin is available in a pharmaceutical preparation (Decapeptyl® Depot). In the use of this preparation, an injection is administered containing triptorelin embonate in a dose corresponding to 3.75 mg triptorelin. Injections with this dose are given intramuscularly. They should be repeated every fourth week from the first injection. […] A then person was referred to a psychiatric specialist clinic from another qualified psychiatrist for evaluation and treatment of a severe condition of OCD. […] The situation when the patient came to the clinic was that they had sickness pension since more than ten years. They lived alone in a small apartment which they hardly ever left. Obsessions and compulsive rituals occupied most of their time. They repeated against their will meaningless strings of words silently during several hours every day. They felt they had to read the newspaper according to certain ritual patterns; if they did anything wrong, they had to start again from the beginning. Sometimes, it took them the whole day to read the newspaper. […] Among other things, they placed their books so that the covers were strictly oriented along north-south lines. Their contacts with other persons were highly restraint and mainly limited to some relatives. […] The clinical diagnosis was that they suffered from a very serious form of OCD. […]

[2] = tested on: symptoms of androgenic hyperactivity; experiment: Case study: treatment of the patient's symptoms of androgenic hyperactivity; type: in vivo, man; details: same patient, before triptorelin
Procedure: An endocrinological investigation was performed, based upon their symptoms of androgenic hyperactivity.

[3] = tested on: obsessive-compulsive neurosis (nowadays called obsessive-compulsive disorder, OCD); details: cited from earlier work
[4] = tested on: OCD-symptoms; experiment: Case study: treatment of a patient with a severe form of OCD; type: in vivo, man
Procedure: The GnRH-analogue triptorelin is available in a pharmaceutical preparation (Decapeptyl® Depot). In the use of this preparation, an injection is administered containing triptorelin embonate in a dose corresponding to 3.75 mg triptorelin. Injections with this dose are given intramuscularly. They should be repeated every fourth week from the first injection.
A detailed case study of the treatment of a patient with a severe form of OCD is disclosed in the following, as supporting evidence of the effect of the method.
A then person was referred to a psychiatric specialist clinic from another qualified psychiatrist for evaluation and treatment of a severe condition of OCD.
The situation when the patient came to the clinic was that they had sickness pension since more than ten years. They lived alone in a small apartment which they hardly ever left. Obsessions and compulsive rituals occupied most of their time. They repeated against their will meaningless strings of words silently during several hours every day. They felt they had to read the newspaper according to certain ritual patterns; if they did anything wrong, they had to start again from the beginning. Sometimes, it took them the whole day to read the newspaper. […] Among other things, they placed their books so that the covers were strictly oriented along north-south lines. Their contacts with other persons were highly restraint and mainly limited to some relatives.
The clinical diagnosis was that they suffered from a very serious form of OCD. They were also found to be intelligent without any signs of any other mental illness or personality disorder. Thus, it was a clearly defined case of OCD.
During long periods of time the patient had been treated with the drugs which presently are considered to have the best effect against OCD. In the treatment of the patient they had also been given supportive psychotherapy.
In order to overcome this, treatment with the long-acting GnRH-analogue triptorelin (Decapeptyl® Depot) was given every fourth week as deep intramuscular depot injections with a dose corresponding to 3.75 mg triptorelin in each injection.

[5] = after another two months (four months in all), 3.75 mg intramuscular every fourth week

Molecule: CC(=O)O[C@]1(C(C)=O)CC[C@H]2[C@@H]3C=C(Cl)C4=CC(=O)[C@@H]5C[C@@H]5[C@]4(C)[C@H]3CC[C@@]21C [cyproterone acetate]
- effect on OCD [1]: without success; also recorded: without any major improvement; also recorded: without any obvious effect on their OCD
- effect on symptoms of androgenic hyperactivity [2]: without any significant effects
- effect in treatment of obsessive-compulsive neurosis ([3]; a few patients, Casas et al. 1986): effective
- effect on OCD ([3]; later investigations by other researchers): failed to demonstrate any effect

Molecule: triptorelin
- effect on OCD-symptoms [4, 5]: dramatically better
- obsessive thoughts [4, 5]: all obsessive thoughts had disappeared
- recovery from very severe form of OCD ([4]; after three months of treatment): substantially recovered
- effect on OCD-symptoms ([4]; after two months treatment, 3.75 mg intramuscular every fourth week): began to feel better
- effect on OCD-symptoms ([4]; initially during treatment, 3.75 mg triptorelin deep intramuscular depot injection every fourth week): accentuation of the patients OCD-symptoms
